Measurements from ChEMBL document CHEMBL5727557, “SHP2 inhibitors and uses thereof” (2020).

Biological target: T1, Tyrosine-protein phosphatase non-receptor type 11 (Homo sapiens, UniProt Q06124)
T1 sequence (Q06124 whole entry): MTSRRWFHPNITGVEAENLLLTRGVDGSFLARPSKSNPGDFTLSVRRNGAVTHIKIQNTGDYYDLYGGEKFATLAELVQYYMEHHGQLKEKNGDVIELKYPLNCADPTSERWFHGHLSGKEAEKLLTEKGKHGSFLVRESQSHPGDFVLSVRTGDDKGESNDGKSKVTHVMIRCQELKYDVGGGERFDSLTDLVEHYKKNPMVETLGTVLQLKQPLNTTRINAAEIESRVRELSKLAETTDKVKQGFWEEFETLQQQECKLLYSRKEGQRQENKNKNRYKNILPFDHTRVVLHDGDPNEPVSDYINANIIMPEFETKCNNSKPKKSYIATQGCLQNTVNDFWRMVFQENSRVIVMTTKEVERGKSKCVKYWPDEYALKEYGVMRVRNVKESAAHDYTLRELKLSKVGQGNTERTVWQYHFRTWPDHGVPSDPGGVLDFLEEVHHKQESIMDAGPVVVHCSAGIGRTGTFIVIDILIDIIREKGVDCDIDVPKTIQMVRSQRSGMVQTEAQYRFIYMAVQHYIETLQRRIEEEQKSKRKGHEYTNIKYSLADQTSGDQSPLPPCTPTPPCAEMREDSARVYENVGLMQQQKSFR
Test: SHP2 Phosphatase Assay: IC50 values were determined at room temperature in 384-well black polystyrene plate, using a final reaction volume of 15 μl and the following assay buffer conditions: 60 mM Hepes (pH=7.2), 75 mM NaCl, 75 mM KCl, and 1 mM EDTA, 0.05% P-20, 5 mM dithiothreitol (DTT). Full length SHP2 enzyme (diluted to 0.1 nM in reaction buffer) were co-incubated with 1 uM IRS-1 peptide and 0.01 nM to 10 μM compounds of the disclosure for 60 min. The surrogate substrate DiFMUP (5 μL, […]) was added, and incubated at rt for 60 min. The reaction was then quenched by the addition of 5 μL of a 40 μM solution of bpV(Phen). The fluorescence signal was monitored using a microplate reader (Envision, Perkin-Elmer) using excitation and emission wavelengths of 360 nm and 450 nm, respectively. The inhibitor dose-response curves were analyzed using normalized IC50 regression curve fitting with control-based normalization.

IC50: < 50 nM
Compound: CC1(CN)CCN(c2ncc(Sc3cccc(NC(=O)c4c(O)nc5cnccn5c4=O)c3Cl)[nH]c2=O)CC1
